Test results from article PMC10287695, “Non-covalent inhibitors of thioredoxin glutathione reductase with schistosomicidal activity in vivo” (Nature Communications, 2023).
Several values for one entry are separate records, joined by “and”; a condition that tells them apart may be missing. Equal entries are not always repeated.

Test system: TGR in newly transformed schistosomula (NTS)
Experiment: TGR inhibition in NTS with TRFS-Green fluorescent probe;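 also: untreated reference is NTS exposed to TRFS-Green probe alone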
Format: cell-based, S. mansoni
Conditions: NTS
Procedure: TGR inhibition in NTS was assessed using a fluorescent probe TRFS-Green (Medchemexpress)[43]. NTS prepared as previously described and cultured in M199 supplemented with 5.5 mM D-glucose, penicillin-streptomycin and 5% heat inactivated fetal bovine serum were incubated at 37 °C in a clear bottom flat well plate in a 5% CO2 incubator overnight. […] NTS were further treated with TRFS-Green (10 µM) for additional 4 h and rinsed with M199 medium to remove residual TRFS-Green. Fluorescence images were obtained using Keyence BZ-X800. The quantification of fluorescence intensity upon the uptake of TRFS-Green by NTS was performed by a fluorescent microplate imager (BioTek Cytation3) (excitation, 438 nm; emission, 538 nm) hourly for 5 h and after 24 h.

## Cc1oc(-c2ccc3c(c2)OCO3)nc1CN[C@@H]1C[C@@H]2C[C@H]([C@H]1C)C2(C)C [C1 (8VP70)]
1hr, 5 µM
  TGR inhibition visualized by TRFS-Green, Average: 10571.8
  TGR inhibition visualized by TRFS-Green, single replicate: 10560.7 and 10583
1hr, 15 µM
  TGR inhibition visualized by TRFS-Green, Average: 9457
  TGR inhibition visualized by TRFS-Green, single replicate: 9312 and 9602
1hr, 30 µM
  TGR inhibition visualized by TRFS-Green, Average: 9252.5
  TGR inhibition visualized by TRFS-Green, single replicate: 9204 and 9301
2hr, 5 µM
  TGR inhibition visualized by TRFS-Green, Average: 14162
  TGR inhibition visualized by TRFS-Green, single replicate: 14242 and 14082
2hr, 15 µM
  TGR inhibition visualized by TRFS-Green, Average: 13529
  TGR inhibition visualized by TRFS-Green, single replicate: 13095 and 13963
2hr, 30 µM
  TGR inhibition visualized by TRFS-Green, Average: 11887.5
  TGR inhibition visualized by TRFS-Green, single replicate: 11941 and 11834
3hr, 5 µM
  TGR inhibition visualized by TRFS-Green, Average: 23711
  TGR inhibition visualized by TRFS-Green, single replicate: 23581 and 23841
3hr, 15 µM
  TGR inhibition visualized by TRFS-Green, Average: 21817.5
  TGR inhibition visualized by TRFS-Green, single replicate: 21984 and 21651
3hr, 30 µM
  TGR inhibition visualized by TRFS-Green, Average: 16831
  TGR inhibition visualized by TRFS-Green, single replicate: 16892 and 16770
4hr, 5 µM
  TGR inhibition visualized by TRFS-Green, Average: 25462.5
  TGR inhibition visualized by TRFS-Green, single replicate: 25241 and 25684
4hr, 15 µM
  TGR inhibition visualized by TRFS-Green, Average: 21898
  TGR inhibition visualized by TRFS-Green, single replicate: 21795 and 22001
4hr, 30 µM
  TGR inhibition visualized by TRFS-Green, Average: 16836.5
  TGR inhibition visualized by TRFS-Green, single replicate: 16939 and 16734
5hr, 5 µM
  TGR inhibition visualized by TRFS-Green, Average: 26920
  TGR inhibition visualized by TRFS-Green, single replicate: 26917 and 26923
5hr, 15 µM
  TGR inhibition visualized by TRFS-Green, Average: 22092
  TGR inhibition visualized by TRFS-Green, single replicate: 23039 and 21145
5hr, 30 µM
  TGR inhibition visualized by TRFS-Green, Average: 16893.5
  TGR inhibition visualized by TRFS-Green, single replicate: 16853 and 16934
24hr, 5 µM
  TGR inhibition visualized by TRFS-Green, Average: 28552
  TGR inhibition visualized by TRFS-Green, single replicate: 28103 and 29001
24hr, 15 µM
  TGR inhibition visualized by TRFS-Green, Average: 23755.5
  TGR inhibition visualized by TRFS-Green, single replicate: 23599 and 23912
24hr, 30 µM
  TGR inhibition visualized by TRFS-Green, Average: 16807
  TGR inhibition visualized by TRFS-Green, single replicate: 16780 and 16834

## CCc1ccccc1-c1nc(CN[C@@H]2C[C@@H]3C[C@H]([C@H]2C)C3(C)C)c(C)o1 [C2 (8VP101)]
1hr, 5 µM
  TGR inhibition visualized by TRFS-Green, Average: 10460.5
  TGR inhibition visualized by TRFS-Green, single replicate: 10308 and 10613
1hr, 15 µM
  TGR inhibition visualized by TRFS-Green, Average: 10104
  TGR inhibition visualized by TRFS-Green, single replicate: 10086 and 10122
1hr, 30 µM
  TGR inhibition visualized by TRFS-Green, Average: 9753
  TGR inhibition visualized by TRFS-Green, single replicate: 9694 and 9812
2hr, 5 µM
  TGR inhibition visualized by TRFS-Green, Average: 13787
  TGR inhibition visualized by TRFS-Green, single replicate: 13840 and 13734
2hr, 15 µM
  TGR inhibition visualized by TRFS-Green, Average: 11633.5
  TGR inhibition visualized by TRFS-Green, single replicate: 11622 and 11645
2hr, 30 µM
  TGR inhibition visualized by TRFS-Green, Average: 11195
  TGR inhibition visualized by TRFS-Green, single replicate: 11148 and 11242
3hr, 5 µM
  TGR inhibition visualized by TRFS-Green, Average: 19344
  TGR inhibition visualized by TRFS-Green, single replicate: 19467 and 19221
3hr, 15 µM
  TGR inhibition visualized by TRFS-Green, Average: 14723.5
  TGR inhibition visualized by TRFS-Green, single replicate: 14460 and 14987
3hr, 30 µM
  TGR inhibition visualized by TRFS-Green, Average: 13932.5
  TGR inhibition visualized by TRFS-Green, single replicate: 14033 and 13832
4hr, 5 µM
  TGR inhibition visualized by TRFS-Green, Average: 23362.5
  TGR inhibition visualized by TRFS-Green, single replicate: 23074 and 23651
4hr, 15 µM
  TGR inhibition visualized by TRFS-Green, Average: 14824.5
  TGR inhibition visualized by TRFS-Green, single replicate: 14826 and 14823
4hr, 30 µM
  TGR inhibition visualized by TRFS-Green, Average: 13941.5
  TGR inhibition visualized by TRFS-Green, single replicate: 13992 and 13891
5hr, 5 µM
  TGR inhibition visualized by TRFS-Green, Average: 26593
  TGR inhibition visualized by TRFS-Green, single replicate: 26274 and 26912
5hr, 15 µM
  TGR inhibition visualized by TRFS-Green, Average: 16217
  TGR inhibition visualized by TRFS-Green, single replicate: 16278 and 16156
5hr, 30 µM
  TGR inhibition visualized by TRFS-Green, Average: 14810
  TGR inhibition visualized by TRFS-Green, single replicate: 14697 and 14923
24hr, 5 µM
  TGR inhibition visualized by TRFS-Green, Average: 29329.8
  TGR inhibition visualized by TRFS-Green, single replicate: 29329.8
24hr, 15 µM
  TGR inhibition visualized by TRFS-Green, Average: 17780.7
  TGR inhibition visualized by TRFS-Green, single replicate: 17780.7
24hr, 30 µM
  TGR inhibition visualized by TRFS-Green, Average: 15410.9
  TGR inhibition visualized by TRFS-Green, single replicate: 15410.9

## Cc1oc(C2CCCCC2)nc1CN[C@@H]1C[C@@H]2C[C@H]([C@H]1C)C2(C)C [C4 (8VP121-1)]
1hr, 5 µM
  TGR inhibition visualized by TRFS-Green, Average: 12224.5
  TGR inhibition visualized by TRFS-Green, single replicate: 12022 and 12427
1hr, 15 µM
  TGR inhibition visualized by TRFS-Green, Average: 11617.5
  TGR inhibition visualized by TRFS-Green, single replicate: 11812 and 11423
1hr, 30 µM
  TGR inhibition visualized by TRFS-Green, Average: 10356
  TGR inhibition visualized by TRFS-Green, single replicate: 10371 and 10341
2hr, 5 µM
  TGR inhibition visualized by TRFS-Green, Average: 19189
  TGR inhibition visualized by TRFS-Green, single replicate: 19355 and 19023
2hr, 15 µM
  TGR inhibition visualized by TRFS-Green, Average: 17814.5
  TGR inhibition visualized by TRFS-Green, single replicate: 17877 and 17752
2hr, 30 µM
  TGR inhibition visualized by TRFS-Green, Average: 13785
  TGR inhibition visualized by TRFS-Green, single replicate: 13959 and 13611
3hr, 5 µM
  TGR inhibition visualized by TRFS-Green, Average: 24561
  TGR inhibition visualized by TRFS-Green, single replicate: 24110 and 25012
3hr, 15 µM
  TGR inhibition visualized by TRFS-Green, Average: 22452
  TGR inhibition visualized by TRFS-Green, single replicate: 22972 and 21932
3hr, 30 µM
  TGR inhibition visualized by TRFS-Green, Average: 19172
  TGR inhibition visualized by TRFS-Green, single replicate: 19108 and 19236
4hr, 5 µM
  TGR inhibition visualized by TRFS-Green, Average: 26229
  TGR inhibition visualized by TRFS-Green, single replicate: 26469 and 25989
4hr, 15 µM
  TGR inhibition visualized by TRFS-Green, Average: 23381.5
  TGR inhibition visualized by TRFS-Green, single replicate: 23782 and 22981
4hr, 30 µM
  TGR inhibition visualized by TRFS-Green, Average: 19196
  TGR inhibition visualized by TRFS-Green, single replicate: 19157 and 19235
5hr, 5 µM
  TGR inhibition visualized by TRFS-Green, Average: 27106
  TGR inhibition visualized by TRFS-Green, single replicate: 27097 and 27115
5hr, 15 µM
  TGR inhibition visualized by TRFS-Green, Average: 23897.5
  TGR inhibition visualized by TRFS-Green, single replicate: 23926 and 23869
5hr, 30 µM
  TGR inhibition visualized by TRFS-Green, Average: 21898.5
  TGR inhibition visualized by TRFS-Green, single replicate: 21774 and 22023
24hr, 5 µM
  TGR inhibition visualized by TRFS-Green, Average: 29485
  TGR inhibition visualized by TRFS-Green, single replicate: 29989 and 28981
24hr, 15 µM
  TGR inhibition visualized by TRFS-Green, Average: 27619.5
  TGR inhibition visualized by TRFS-Green, single replicate: 27128 and 28111
24hr, 30 µM
  TGR inhibition visualized by TRFS-Green, Average: 25005.5
  TGR inhibition visualized by TRFS-Green, single replicate: 25040 and 24971
